Assay results from patent US20200131249A1, “NOVEL PROTEINS AND USE THEREOF” (EVOLVERITAS KFT., priority 2017, published 2020).
Where no end group is shown, it is not given here.

How the values were obtained:
alternative pathway = test: C3 deposition ELISA with rat serum on LPS coated plates; type: biochemical; settings: final concentrations as high as 50 μM; 6-fold diluted rat serum
Experimental: ELISA-based complement classical and alternative pathway activation tests were performed on IgG or lipopolysaccharide (LPS) coated plates, respectively, using diluted individual (not pooled) rat serum. In these tests, inhibitory efficiencies of the protein of SEQ ID NO: 14 and SGMI-2 were compared and C3 deposition was used for quantification of the complement activation.
The buffers, incubation times, incubation temperatures and antibodies were the same as described in point 4.5.1.
The final dilution of the rat serum was 6-fold. The dilution of the primary antibody was 3000-fold.

thrombin = test: Thrombin time (TT) in human plasma
Experimental: (§1) Blood coagulation measurements using blood plasma taken from healthy human individuals were also performed. From the blood obtained through venipuncture and treated with sodium citrate (3.8% wt/vol) the plasma was isolated by centrifugation (2,000 g, 15 minutes, Jouan CR412 centrifuge).
(§2) The effect of the protein variants of the present invention on the blood coagulation process was tested in three standard assays, the thrombin time, testing any direct effects on thrombin; prothrombin time, testing any effects on the extrinsic pathway; and the activated partial thromboplastin time, testing any effects on the intrinsic pathway. Blood was collected from a healthy individual by vein puncture after informed consent. The blood was treated with sodium-citrate (3.8% w/v) and centrifuged. All three assays were performed on the automated instrument Sysmex CA-1500 (Sysmex) with Innovin reagent (Dale Behring, Marburg, Germany).
(§3) The inhibitors were applied in a fivefold serial dilution with the highest final concentration being 36 μM. This value is 3-4 orders of magnitudes higher than the KI values of the three protein variants of the present invention on human MASP-2. Even at the highest concentration the protein variants of the present invention have only little effect in the APTT test and no effect in the PT and TT tests.

extrinsic pathway = test: Prothrombin time (PT) in human plasma
Experimental: as §1, §2, §3

intrinsic pathway = test: Activated partial thromboplastin time (APTT) in human plasma
Experimental: as §1, §2, §3

human MASP-1 = biological target: T1, human MASP-1 (Homo sapiens, UniProt P48740); test: KI determination on human MASP-1 catalytic fragment; type: biochemical; design: key to KI on human MASP-1: N.E.: not effective; settings: catalytic fragment; Z-L-Lys-SBzl
T1 construct: catalytic enzyme fragments containing the three C-terminal domains: CCP1-CCP2-SP
T1 sequence (P48740 449-699 limits assumed): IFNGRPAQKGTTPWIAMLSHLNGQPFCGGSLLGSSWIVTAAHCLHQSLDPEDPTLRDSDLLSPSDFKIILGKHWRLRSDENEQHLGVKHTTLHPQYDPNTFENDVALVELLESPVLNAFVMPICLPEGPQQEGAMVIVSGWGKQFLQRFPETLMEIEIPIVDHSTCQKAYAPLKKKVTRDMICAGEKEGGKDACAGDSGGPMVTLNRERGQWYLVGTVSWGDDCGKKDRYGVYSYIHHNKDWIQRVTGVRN
T1 sequence (P48740 298-448 partner limits assumed): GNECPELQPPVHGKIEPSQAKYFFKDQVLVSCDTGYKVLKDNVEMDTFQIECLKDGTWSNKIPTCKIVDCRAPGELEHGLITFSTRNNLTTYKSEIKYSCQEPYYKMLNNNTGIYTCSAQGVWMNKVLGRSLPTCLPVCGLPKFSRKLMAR
Experimental: The inhibition equilibrium constant (KI) of all four inhibitor variants produced was measured on human MASP-2 and rat MASP-2. Additionally, KI values were measured also on human MASP-1 and human MASP-3 to assess the specificity of the inhibitors amongst the MASP enzymes. KI values of the inhibitors on bovine trypsin, a pancreatic model enzyme was also measured.
For determining the KI of the inhibitors on MASP enzymes we used catalytic enzyme fragments containing the three C-terminal domains: CCP1-CCP2-SP. The synthetic substrate used in the measurements was Z-L-Lys-SBzl hydrochloride (Sigma, C3647), from which a 10 mM stock solution was prepared. The reactions were performed in a volume of 0.2 ml at room temperature in a buffer consisting of 20 mM HEPES; 145 mM NaCl; 5 mM CaCl2; 0.05% Triton-X100. The substrate cleaved by the enzyme entered into a reaction with the 5,5′-Dithiobis(2-nitrobenzoic acid) (DTNB, Ellman's reagent, Sigma—D8130) auxiliary substrate present in the solution in 2-fold excess to Z-L-Lys-SBzl. The release of the chromophore group created in this way was monitored via the change of absorbance at 410 nm using a BioTek Synergy H4 multimode microplate reader.
A dilution sequence was prepared from the individual inhibitors, the enzyme was added to it, and it was incubated for 2 hours at room temperature. The samples were transferred on a 96-well microtiter plate (Nunc 269620). The reactions were started by adding the mixture of the substrate and the auxiliary substrate to the samples. The concentration of the substrate and the length of the measuring period were chosen so that under the given conditions the enzyme should consume less than 10% of the substrate. In this case we used 250 μM Z-L-Lys-SBzl and 500 μM DTNB in the reactions. In the course of measuring, a method developed for the characterisation of tight-binding inhibitors was used (Empie, 1982). The concentration of the product was measured as a function of reaction time. The slope of the straight line determined for the initial phase of the reaction was normalised with the slope obtained for the uninhibited enzyme reaction, and this value was multiplied with the total enzyme concentration. As a result of this we obtained the free enzyme concentration, which was plotted as a function of the total inhibitor concentration and the Ki value was determined according to the following equation:
E=y=E0−(E0+x+Ki−(((E0+x+Ki)^2)−4*E0*x)^(½))/2,
where E is the free (uninhibited) enzyme concentration, and E0 is the total enzyme concentration. The stock concentration of the inhibitors was determined by titration with bovine trypsin of known concentration. The results were calculated as the average of parallel measurements.

MASP-2 = MASP-2 (Homo sapiens, UniProt O00187); design: catalytic enzyme fragments containing the three C-terminal domains: CCP1-CCP2-SP; made in house; inclusion bodies, renatured; settings: Data from Héja et al. 2012b; cited from earlier work
Chain of MASP-2 (O00187 445-686 limits assumed): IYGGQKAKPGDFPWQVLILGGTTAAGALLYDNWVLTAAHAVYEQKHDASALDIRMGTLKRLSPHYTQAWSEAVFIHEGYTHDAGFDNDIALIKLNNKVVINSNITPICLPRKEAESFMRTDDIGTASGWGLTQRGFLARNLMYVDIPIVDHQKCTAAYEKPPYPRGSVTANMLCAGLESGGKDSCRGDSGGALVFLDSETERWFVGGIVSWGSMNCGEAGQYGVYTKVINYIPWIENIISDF
Chain of MASP-2 (O00187 287-444 partner limits assumed): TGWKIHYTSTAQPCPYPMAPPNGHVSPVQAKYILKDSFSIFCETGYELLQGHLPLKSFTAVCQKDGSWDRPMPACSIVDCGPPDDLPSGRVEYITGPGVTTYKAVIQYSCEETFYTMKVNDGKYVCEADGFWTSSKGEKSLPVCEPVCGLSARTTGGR

| Substance | inhibition of the alternative pathway in rat serum (alternative pathway) | TT (thrombin; inhibitor 0.1 μM) [s] | TT (thrombin; inhibitor 0.3 μM) [s] | TT (thrombin; inhibitor 1.4 μM) [s] | TT (thrombin; inhibitor 7.2 μM) [s] | TT (thrombin; inhibitor 36.0 μM) [s] | PT (extrinsic pathway; inhibitor 0.1 μM) [s] | PT (extrinsic pathway; inhibitor 0.3 μM) [s] | PT (extrinsic pathway; inhibitor 1.4 μM) [s] | PT (extrinsic pathway; inhibitor 7.2 μM) [s] | PT (extrinsic pathway; inhibitor 36.0 μM) [s] | APTT (intrinsic pathway; inhibitor 0.1 μM) [s] | APTT (intrinsic pathway; inhibitor 0.3 μM) [s] | APTT (intrinsic pathway; inhibitor 1.4 μM) [s] | APTT (intrinsic pathway; inhibitor 7.2 μM) [s] | APTT (intrinsic pathway; inhibitor 36.0 μM) [s] | KI on human MASP-1 (human MASP-1) | Ki (MASP-2) [nM] |
| --- | --- | --- | --- | --- | --- | --- | --- | --- | --- | --- | --- | --- | --- | --- | --- | --- | --- | --- |
| SEQ ID NO: 14: TFPI-D2 variant protein with inhibitor loop PCRAVKR (SEQ ID NO: 4) (KPDFCFLEEDPGPCRAVKRRYFYNNQTKQCERFKYGGCLGNMNNFETLEECKNICEDG; ends and bridges not checked; cysteine pairing not given here) | neither the protein of SEQ ID NO: 14 nor SGMI-2 were able to inhibit | 16.5 | 16.6 | 16.7 | 16.2 | 15.5 | 10.8 | 10.7 | 10.8 | 10.9 | 11.3 | 36.1 | 36.8 | 37.9 | 40.2 | 46.4 | N.E. |  |
| SGMI-2 (GSGEVTCEPGTTFKDKCNTCRCGSDGKSAVCTKLWCNQ; Synthetic protein of insect origin) [reference compound] | neither the protein of SEQ ID NO: 14 nor SGMI-2 were able to inhibit |  |  |  |  |  |  |  |  |  |  |  |  |  |  |  | N.E. | 6 |
